# Measurements: patent publication US8697709B2, “Fused ring heteroaryl kinase inhibitors” (The Regents of the University of California, priority 2008, dated 2014)
# System: T315I Bcr-Abl BaF3 cells
# Experiment: Cell proliferation (Resazurin) of T315I Bcr-Abl transduced BaF3 cells
# Assay type: cell-based
# Settings: two day treatment, without IL-3
compound,measurement,value
"CC(C)n1nc(-c2ccc(NC(=O)Nc3cccc(C(F)(F)F)c3)cc2)c2c(N)ncnc21 [AD57, 1-(4-(4-amino-1-isopropyl-1H-pyrazolo[3,4-d]pyrimidin-3-yl)phenyl)-3-(3-(trifluoromethyl)phenyl)urea]",inhibition of growth of T315I Bcr-Abl BaF3 cells,equally inhibits the growth
